Assay results reported in US12594267B2, “Capsid inhibitors for the treatment of HIV” (Gilead Sciences, Inc., priority 2018, dated 2026).
Read-outs that look alike come from different tables or passages of the source.

Test: PK after subcutaneous administration of solutions in dogs
Type: in vivo, Beagle dog
Conditions: dog, plasma, sc, dog, mean ± SD, n=3; for concentration at 56 d: read-out: C56d
Protocol: Formulations containing the compound of Formula (Ia) were prepared as aqueous solutions or oral formulations and administered subcutaneously to rats, dogs, cynomolgus monkey, and/or rhesus monkey.
A solution of the compound of Formula (Ia) in 10% ethanol, 13% water, and 77% PEG 200 (400 mg/mL) was prepared. The solution was administered subcutaneously to dogs at a dose of 12 mg/kg and rats at a dose of 50 mg/kg and the pharmacokinetic (PK) profile was determined. […] In both species, plasma concentrations of the compound of Formula (Ia) were maintained above the target trough concentration of 20 nM (corresponding to an IQ of 5) for at least 84 days (12 weeks).
A solution of the compound of Formula (Ia) in 15% water and 85.0 PEG 300 (400 mg/mL) was prepared. The solution was administered subcutaneously to male beagle dogs at a dose level of 12 mg/kg and dose volume of […] and the pharmacokinetic (PK) profile was determined.
A solution of the compound of Formula (a) sodium salt in water and 300 (300 mg/mL) was prepared that contained 22.6% water/50% PEG 300/1.1% NaOH/26.3% Formula (Ia). The solution was administered subcutaneously to male beagle dogs at a dose level of 12 mg/kg and dose volume of […] and the pharmacokinetic (PK) profile was determined.
A 300 mg/ml solution of a compound of Formula (Ia) having 9.8 w/w % water, 65.0 w/w % PEG 300, and 25.2 w/w % of the compound of Formula (Ia) was prepared. The solution was administered subcutaneously to rats at a dose of 50 mg/kg and to dogs at a dose of 12 mg/kg and the pharmacokinetic (PK) profile was determined. […] In the rat, plasma concentrations of the compound of Formula (Ia) were maintained above the target trough concentration of 20 nM for at least 168 days (24 weeks). In the dog, plasma concentrations of the compound of Formula (Ia) were maintained above the target trough concentration of 20 nM for at least 84 days (12 weeks).
(§1) A 150 mg/ml solution of a compound of Formula (Ia) having 27.92 w/w % water, 58.04 w/w % PEG 300, 13.47 w/w % of a compound of Formula (Ia), and 1.1 w/w % NaOH was prepared. The solution was administered subcutaneously to rats at a dose of 50 mg/kg and to dogs at a dose of 12 mg/kg and the pharmacokinetic (PK) profile was determined. […] In the rat, plasma concentrations of the compound of Formula (Ia) were maintained above the target trough concentration of 20 nM for at least 126 days (18 weeks). In the dog, plasma concentrations of the compound of Formula (Ia) were maintained above the target trough concentration of 20 nM for at least 56 days (8 weeks).
as §1, with “300” for “150”, “23.2” for “27.92”, “50.0” for “58.04”, “25.7” for “13.47”
A 50 mg/ml solution of a compound of Formula (Ia) having 30.07 w/w % water, 64.40 w/w % PEG 300, 4.68 w/w % of a sodium salt of the compound of Formula (Ia), and 0.85 w/w % poloxamer 188 was prepared. The solution was administered subcutaneously to rats at a dose of 50 mg/kg and to dogs at a dose of 6 mg/kg and the pharmacokinetic (PK) profile was determined. […] In the rat, plasma concentrations of the compound of Formula (Ia) were maintained above the target trough concentration of 20 nM for at least 28 days (4 weeks). In the dog, plasma concentrations of the compound of Formula (Ia) were maintained above the target trough concentration of 20 nM for at least 14 days (2 weeks). […]

[1] = Beagle, 6 mg/kg, SC 6 mg/kg, 150 mg/mL solution (w/w %: 26.6 water, 56.97 PEG 300, 13.39 Formula (Ia), 0.57 NaOH, 2.49 poloxamer 188)
[2] = beagle, 6 mg/kg, SC 6 mg/kg, 300 mg/mL solution (w/w %: 21.97 water, 47.05 PEG 300, 25.21 Formula (Ia), 1.08 NaOH, 4.69 poloxamer 188)
[3] = beagle, 12 mg/kg, SC 12 mg/kg, 150 mg/mL solution (w/w %: 27.92 water, 58.04 PEG 300, 13.47 Formula (Ia), 1.1 NaOH)
[4] = beagle, 12 mg/kg, SC 12 mg/kg, 300 mg/mL solution (w/w %: 9.8 water, 65.0 PEG 300, 25.2 Formula (Ia))
[5] = beagle, 12 mg/kg, SC 12 mg/kg, 300 mg/mL solution (w/w %: 23.2 water, 50.0 PEG 300, 25.7 Formula (Ia), 1.1 NaOH)

CC(C)(C#Cc1ccc(-c2ccc(Cl)c3c(NS(C)(=O)=O)nn(CC(F)(F)F)c23)c([C@H](Cc2cc(F)cc(F)c2)NC(=O)Cn2nc(C(F)(F)F)c3c2C(F)(F)[C@@H]2C[C@H]32)n1)S(C)(=O)=O [Formula (Ia), N—((S)-1-(3-(4-chloro-3-(methylsulfonamido)-1-(2,2,2-trifluoroethyl)-1H-indazol-7-yl)-6-(3-methyl-3-(methylsulfonyl)but-1-yn-1-yl)pyridin-2-yl)-2-(3,5-difluorophenyl)ethyl)-2-((3bS,4aR)-5,5-difluoro-3-(trifluoromethyl)-3b,4,4a,5-tetrahydro-1H-cyclopropa[3,4]cyclopenta[1,2-c]pyrazol-1-yl)acetamide]
AUC(0-t) (Beagle, 6 mg/kg, SC 6 mg/kg, 100 mg/mL solution (w/w %: 28.36 water, 60.73 PEG 300, 9.23 sodium salt of Formula (Ia), 1.68 poloxamer 188), read-out: AUC0-24h): 6.05 ± 3.43 µM·h | AUC(0-t) (Beagle, 6 mg/kg, SC 6 mg/kg, 125 mg/mL solution (w/w %: 27.51 water, 58.92 PEG 300, 11.48 sodium salt of Formula (Ia), 2.09 poloxamer 188), read-out: AUC0-24h): 4.71 ± 1.51 µM·h | AUC(0-t) (Beagle, 6 mg/kg, SC 6 mg/kg, 125 mg/mL solution (w/w %: 27.51 water, 58.92 PEG 300, 11.48 sodium salt of Formula (Ia), 2.09 poloxamer 188), read-out: AUC0-14d): 90.3 ± 3.5 µM·h | Cmax [1]: 101 ± 44 nM | Tmax [1]: 10 ± 15.6 days | AUC(0-t) (Beagle, 6 mg/kg, SC 6 mg/kg, 150 mg/mL solution (w/w %: 26.6 water, 56.97 PEG 300, 13.39 Formula (Ia), 0.57 NaOH, 2.49 poloxamer 188), read-out: AUC0-56d): 69 ± 13.9 µM·h | AUC(0-t) (Beagle, 6 mg/kg, SC 6 mg/kg, 150 mg/mL solution (w/w %: 26.6 water, 56.97 PEG 300, 13.39 Formula (Ia), 0.57 NaOH, 2.49 poloxamer 188), read-out: AUC0-84d): 76.6 ± 8.5 µM·h | concentration at 56 d [1]: 24.9 nM | AUC(0-t) (beagle, 6 mg/kg, SC 6 mg/kg, 50 mg/mL solution (w/w %: 30.07 water, 64.40 PEG 300, 4.68 sodium salt of Formula (Ia), 0.85 poloxamer 188), read-out: AUC0-24h): 14.7 ± 4.4 µM·h | concentration at 14 d (beagle, 6 mg/kg, SC 6 mg/kg, 50 mg/mL solution (w/w %: 30.07 water, 64.40 PEG 300, 4.68 sodium salt of Formula (Ia), 0.85 poloxamer 188), read-out: C14d): 37.2 ± 13.9 nM | AUC(0-t) (beagle, 6 mg/kg, SC 6 mg/kg, 75 mg/mL solution (w/w %: 29.21 water, 62.55 PEG 300, 6.97 sodium salt of Formula (Ia), 1.68 poloxamer 188), read-out: AUC0-24h): 5.88 ± 1.95 µM·h | AUC(0-t) (beagle, 6 mg/kg, SC 6 mg/kg, 75 mg/mL solution (w/w %: 29.21 water, 62.55 PEG 300, 6.97 sodium salt of Formula (Ia), 1.68 poloxamer 188), read-out: AUC0-28d): 101 ± 11 µM·h | concentration at 21 d (beagle, 6 mg/kg, SC 6 mg/kg, 75 mg/mL solution (w/w %: 29.21 water, 62.55 PEG 300, 6.97 sodium salt of Formula (Ia), 1.68 poloxamer 188), read-out: C21d): 40 ± 24 nM | Cmax [2]: 69 ± 22 nM | AUC(0-t) (beagle, 6 mg/kg, SC 6 mg/kg, 300 mg/mL solution (w/w %: 21.97 water, 47.05 PEG 300, 25.21 Formula (Ia), 1.08 NaOH, 4.69 poloxamer 188), read-out: AUC0-56d): 55.4 ± 20.8 µM·h | concentration at 56 d [2]: 30.4 ± 7.2 nM | Cmax [3]: 312 ± 93 nM | Tmax [3]: 16.3 ± 4.04 days | concentration at 56 d [3]: 22.9 ± 5.6 nM | Cmax [4]: 133 ± 10 nM | Tmax [4]: 14 days | AUC(0-t) (beagle, 12 mg/kg, SC 12 mg/kg, 300 mg/mL solution (w/w %: 9.8 water, 65.0 PEG 300, 25.2 Formula (Ia)), read-out: AUC0-126d): 139 ± 8 µM·h | concentration at 84 d (beagle, 12 mg/kg, SC 12 mg/kg, 300 mg/mL solution (w/w %: 9.8 water, 65.0 PEG 300, 25.2 Formula (Ia)), read-out: C84d): 21.7 ± 6.5 nM | Cmax [5]: 267 ± 176 nM | Tmax [5]: 12.3 ± 9.62 days | AUC(0-t) (beagle, 12 mg/kg, SC 12 mg/kg, 300 mg/mL solution (w/w %: 23.2 water, 50.0 PEG 300, 25.7 Formula (Ia), 1.1 NaOH), read-out: AUC0-56d): 166 ± 110 µM·h | concentration at 56 d [5]: 29.6 ± 30.8 nM | AUC(0-t) (beagle, 12 mg/kg, SC 12 mg/kg, 400 mg/mL solution in 10% ethanol, 13% water, 77% PEG 200, read-out: AUC0-84d): 89.6 ± 10.1 µM·h
